The values below are quoted from earlier work in US20070281983A1, “Creatine analog prodrugs, compositions and uses thereof” (XenoPort, Inc., priority 2006, published 2007).

Read-outs that look alike come from different tables or passages of the source. Bounds are passed on as bounds.

Test in series [1]: not given
The source holds these as a separate data set.

The conditions of series [2]: healthy volunteers, oral creatine administration.
The conditions of series [3]: animals, diet containing up to 1% cyclocreatine.

As to `CN(CC(=O)O)C(=N)N.O` [creatine monohydrate], the adverse side effects entry (athletes and body builders, 2-3 gm/day) is “without adverse side effects”. For the compound `CN(CC(=O)O)C(=N)N` [creatine, Creatine], the “overall increase in creatine phosphate levels” value in series [1] (creatine supplementation, typically takes weeks) is less than 50%. Moreover, in series [1] (following oral creatine supplementation), the “duration of increases in tissue creatine phosphate levels” value is on record as more than 14 days. Further, in series [2], the “increase in cerebral creatine phosphate” value was “about 10%”. Consider `NC1=NCCN1CC(=O)O` [cyclocreatine], for which the adverse effects entry in series [3] is reported as “do not exhibit adverse effects”. Take `CN(CC(=O)O)C(=N)NP(=O)(O)O` [creatine phosphate]: under “patients with cardiac diseases, intravenous injection up to 8 gm/day”, the adverse side effects entry was “without adverse side effects”.
